Values quoted from earlier work as cited in patent US6649654B1, “Methods for identifying and using IKK inhibitors” (The Regents of the University of California, priority 1999, dated 2003).

Molecular target: T1, peroxisome proliferator-activated receptor-γ (PPAR-γ) (Homo sapiens, UniProt P37231)
T1 sequence (P37231 1-505): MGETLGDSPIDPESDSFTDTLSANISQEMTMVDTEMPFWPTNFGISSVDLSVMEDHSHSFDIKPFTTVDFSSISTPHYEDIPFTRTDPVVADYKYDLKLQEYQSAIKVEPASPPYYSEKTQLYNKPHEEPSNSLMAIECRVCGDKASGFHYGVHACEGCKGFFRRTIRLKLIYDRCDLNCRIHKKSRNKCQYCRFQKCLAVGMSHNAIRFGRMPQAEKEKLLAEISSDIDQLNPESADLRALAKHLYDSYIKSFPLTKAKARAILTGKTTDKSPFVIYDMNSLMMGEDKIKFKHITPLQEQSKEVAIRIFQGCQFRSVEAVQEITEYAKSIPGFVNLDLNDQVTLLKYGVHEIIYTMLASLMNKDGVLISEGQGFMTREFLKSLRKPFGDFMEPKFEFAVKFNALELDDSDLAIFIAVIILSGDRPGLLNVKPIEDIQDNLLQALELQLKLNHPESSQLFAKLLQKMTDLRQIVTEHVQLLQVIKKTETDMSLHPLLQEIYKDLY
Conditions: Ricote et al.; Jiang et al.; cited from earlier work

CCCCC/C=C/C=C1/C(=O)C=C[C@@H]1C/C=C\CCCC(=O)O [15dPGJ2, 15-deoxy-Δ^12-14-PGJ2]
activation of PPAR-γ: activate
